Test results: BindingDB's records for doi:10.1016/j.bmc.2020.115544 (Duquesne University, 2020)
Blank lines part the entries; values can stand above or below the molecule they belong to.

Assays:
[1] = Inhibition of GARFTase in human KB cells expressing RFC/FRalpha/PCFT assessed as reduction in cell growth after 96 hrs by Cell-Titer Blue assay
[2] = Inhibition of GARFTase in human KB cells expressing RFC/FRalpha/PCFT assessed as reduction in cell growth after 96 hrs in presence of folic acid by Cell-Titer Blue assay

Compound: CC(=O)N(CCCc1cc2c(=O)[nH]c(N)nc2[nH]1)c1ccc(C(=O)N[C@@H](CCC(=O)O)C(=O)O)cc1
IC50 [1]: 40 nM
IC50 [2]: > 1000 nM

Compound: Nc1nc2[nH]c(CCCN(C(=O)C(F)(F)F)c3ccc(C(=O)N[C@@H](CCC(=O)O)C(=O)O)cc3)cc2c(=O)[nH]1
IC50 [1]: 5.4 nM
IC50 [2]: > 1000 nM

Compound: Nc1nc2[nH]c(CCNc3ccc(C(=O)N[C@@H](CCC(=O)O)C(=O)O)cc3)cc2c(=O)[nH]1
IC50 [1]: 0.32 nM
IC50 [2]: 666 nM

Compound: Nc1nc2[nH]c(CCCN(C=O)c3ccc(C(=O)N[C@@H](CCC(=O)O)C(=O)O)cc3)cc2c(=O)[nH]1
IC50 [1]: 13 nM
IC50 [2]: > 1000 nM

Continued, values first:

IC50 [1]: 0.3 nM
IC50 [2]: 757 nM
Compound: Nc1nc2[nH]c(CCCSc3ccc(C(=O)N[C@@H](CCC(=O)O)C(=O)O)cc3)cc2c(=O)[nH]1

IC50 [1]: 2.5 nM
IC50 [2]: > 1000 nM
Compound: Nc1nc2[nH]c(CCCOc3ccc(C(=O)N[C@@H](CCC(=O)O)C(=O)O)cc3)cc2c(=O)[nH]1

IC50 [1]: 0.95 nM
IC50 [2]: > 1000 nM
Compound: Nc1nc2[nH]c(CCCNc3ccc(C(=O)N[C@@H](CCC(=O)O)C(=O)O)cc3)cc2c(=O)[nH]1
